Drawing on patent US8952147B2, “Conjugates, preparation thereof, and therapeutic use thereof” (Sanofi, priority 2009, dated 2015), this text covers IC50 for 11 molecules.

Common to all, as to type: cell-based
Test [1] has as its system MDA-A1 cells. The test is described as follows: Inhibition of proliferation of MDA-A1 cells by the cytotoxic agents (14C-thymidine incorporation). The note with it: 3 days culture, 14C-thymidine incorporation at 96 hours. The protocol: (§1) Evaluation of the inhibition of proliferation of MDA-MB-231, MDA-A1 and HCT116 cell lines by the cytotoxic agents, study performed on the compounds of formula (II) of the type SZa with Za═SMe or of the type —C(═O)—ZbRb with ZbRb=OMe or OCH2—CH═CH2 The MDA-MB-231, MDA-A1 or HCT116 cells in their exponential growth phase are trypsinized and resuspended in their respective culture medium (DMEM/F12 Gibco #21331, 10% FCS Gibco #10500-056, […] Gibco #25030 for the MDA cells; DMEM Gibco #11960, 10% FCS Gibco #10500-056, 2 mM glutamine Gibco #25030 for the HCT116 cells). The cell suspension is seeded in Cytostar 96-well culture plates (GE Healthcare Europe, #RPNQ0163) in the whole culture medium containing serum at a density of 5000 cells/well (MDA-MB-231, MDA-A1, HCT116). After incubation for 4 hours, successive dilutions of the cryptophycin derivatives are added to the wells at concentrations decreasing from 10^−7 to 10^−12 M (in triplicate for each concentration). The cells are cultured for 3 days at 37° C. under an atmosphere containing 5% CO2 in the presence of the cytotoxic agents. On the 4th day, 10 μl of a ^14C-thymidine solution (0.1 μCi/well, Perkin Elmer #NEC56825000) are added to each well. The incorporation of ^14C-thymidine is measured 96 hours after the start of the experiment using a microbeta radioactivity counter (Perkin Elmer). The data are expressed in the form of a percentage of survival by determining the ratio between the reduced count obtained with the cells treated with cytotoxic agent and the count obtained with the cells of the control wells (treated with the culture medium alone).
A general note: Uptake of a labelled nucleoside into DNA is a usual measure of proliferation.

Test [2] concerns HCT116 cells. The test is described as follows: Inhibition of proliferation of HCT116 cells by the cytotoxic agents (14C-thymidine incorporation). The note with it: Homo sapiens, HCT-116, 3 days culture, 14C-thymidine incorporation at 96 hours. Here is the method: as §1
Test [3] deals with MDA-MB-231 cells. The test can be described thus: Inhibition of proliferation of MDA-MB-231 cells by the cytotoxic agents (14C-thymidine incorporation). To be noted: Homo sapiens, 3 days culture, 14C-thymidine incorporation at 96 hours. Here is the method:
as §1

Turning to `COc1ccc(C[C@H]2NC(=O)/C=C/C[C@@H]([C@H](C)[C@H]3O[C@@H]3c3ccc(CO)cc3)OC(=O)[C@H](CC(C)C)OC(=O)C(C)(C)CNC2=O)cc1Cl` [Compound 1, reference compound], the figures for the half-inhibitory concentration (IC50) in test [1], in test [2] and in test [3] were 1.07 nM, 0.032 nM and 0.041 nM, respectively.
As to `COc1ccc(C[C@H]2NC(=O)/C=C/C[C@@H]([C@H](C)[C@H]3O[C@@H]3c3ccc(CN4CCN(C(=O)CCC(C)(C)SSC)CC4)cc3)OC(=O)[C@H](CC(C)C)OC(=O)C(C)(C)CNC2=O)cc1Cl` [Compound 7, (E)-(3S,10R,16S)-10-(3-Chloro-4-methoxybenzyl)-3-isobutyl-6,6-dimethyl-16-[(S)-1-((2R,3R)-3-{4-[4-(4-methyl-4-methyldisulfanylpentanoyl)piperazin-1-ylmethyl]phenyl}oxiranyl)-ethyl]-1,4-dioxa-8,11-diazacyclohexadec-13-ene-2,5,9,12-tetraone], the half-inhibitory concentration (IC50) in test [1] came to 7.95 nM; in test [2], 0.315 nM; in test [3], 0.303 nM.
Turning to `COc1ccc(C[C@H]2NC(=O)/C=C/C[C@@H]([C@H](C)[C@H]3O[C@@H]3c3ccc(CO)cc3)OC(=O)[C@H](CC(C)C)OC(=O)[C@H](C)CNC2=O)cc1Cl` [Compound 8, reference compound], the half-maximal inhibitory concentration (IC50) in test [1] was determined as 0.828 nM; in test [2], 0.052 nM; in test [3], 0.104 nM.
Regarding `COc1ccc(C[C@H]2NC(=O)/C=C/C[C@@H]([C@H](C)[C@H]3O[C@@H]3c3ccc(CNCC(C)(C)SSC)cc3)OC(=O)[C@H](CC(C)C)OC(=O)C(C)(C)CNC2=O)cc1Cl` [Compound 13, (E)-(3S,10R,16S)-10-(3-Chloro-4-methoxybenzyl)-3-isobutyl-16-[(S)-1-((2R,3R)-3-{4-[(2-methyl-2-methyldisulfanylpropylamino)methyl]phenyl}oxiranyl)ethyl]-6,6-dimethyl-1,4-dioxa-8,11-diazacyclohexadec-13-ene-2,5,9,12-tetraone], the half-inhibitory concentration (IC50) in test [1] turned out to be 9.76 nM; in test [2], 0.336 nM; in test [3], 0.529 nM.
In the case of `COc1ccc(C[C@H]2NC(=O)/C=C/C[C@@H]([C@H](C)[C@H]3O[C@@H]3c3ccc(CN4CCN(CC(C)(C)SSC)CC4)cc3)OC(=O)[C@H](CC(C)C)OC(=O)C(C)(C)CNC2=O)cc1Cl` [Compound 19, (E)-(3S,10R,16S)-10-(3-Chloro-4-methoxybenzyl)-3-isobutyl-6,6-dimethyl-16-[(S)-1-((2R,3R)-3-{4-[4-(2-methyl-2-methyldisulfanylpropyl)piperazin-1-ylmethyl]phenyl}oxiranyl)ethyl]-1,4-dioxa-8,11-diazacyclohexadec-13-ene-2,5,9,12-tetraone], the results for the IC50 in test [1], in test [2] and in test [3] were 2.71 nM, 0.152 nM and 0.149 nM, respectively.
Consider `COc1ccc(C[C@H]2NC(=O)/C=C/C[C@@H]([C@H](C)[C@H]3O[C@@H]3c3ccc(CN(C)CCOCCOCCOCCN(C)CC(C)(C)SSC)cc3)OC(=O)[C@H](CC(C)C)OC(=O)C(C)(C)CNC2=O)cc1Cl` [Compound 30], for which the IC50 in test [1] stood at 11.9 nM; in test [2], 0.031 nM; in test [3], 0.03 nM.
On the same counts, the results for `C=CCOC(=O)CN1CCN(Cc2ccc([C@H]3O[C@@H]3[C@@H](C)[C@@H]3C/C=C/C(=O)N[C@H](Cc4ccc(OC)c(Cl)c4)C(=O)NCC(C)(C)C(=O)O[C@@H](CC(C)C)C(=O)O3)cc2)CC1` [Compound 40, Allyl (4-{4-[(2R,3R)-3-((S)-1-{(E)-(3S,10R,16S)-10-[3-chloro-4-methoxybenzyl]-3-isobutyl-6,6-dimethyl-2,5,9,12-tetraoxo-1,4-dioxa-8,11-diazacyclohexadec-13-en-16-yl}ethyl)-oxiranyl]benzyl}piperazin-1-yl)acetate] are 1.58 nM, 0.12 nM and 0.293 nM.
On the same counts, the results for `C=CCOC(=O)CCOCCOCCOCCOCCNCc1ccc([C@H]2O[C@@H]2[C@@H](C)[C@@H]2C/C=C/C(=O)N[C@H](Cc3ccc(OC)c(Cl)c3)C(=O)NCC(C)(C)C(=O)O[C@@H](CC(C)C)C(=O)O2)cc1` [Compound 44, Allyl (2-{2-[2-(2-{4-[(2R,3R)-3-((S)-1-{(E)-(3S,10R,16S)-10-[3-chloro-4-methoxy-benzyl]-3-isobutyl-6,6-dimethyl-2,5,9,12-tetraoxo-1,4-dioxa-8,11-diazacyclohexadec-13-en-16-yl}ethyl)oxiranyl]benzylamino}ethoxy)ethoxy]ethoxy}ethoxy)propanoate] are 15.6 nM, 0.135 nM and 0.156 nM.
On the same counts, the results for `COc1ccc(C[C@H]2NC(=O)/C=C/C[C@@H]([C@H](C)[C@@H]3O[C@H]3c3ccc(CO)cc3)OC(=O)[C@H](CC(C)C)OC(=O)C(C)(C)CNC2=O)cc1Cl` [Compound 57] are 29 nM, 1.13 nM and 1.19 nM.
For the molecule `COC(=O)CCCc1cn(Cc2ccc([C@H]3O[C@@H]3[C@@H](C)[C@@H]3C/C=C/C(=O)N[C@H](Cc4ccc(OC)c(Cl)c4)C(=O)NCC(C)(C)C(=O)O[C@@H](CC(C)C)C(=O)O3)cc2)nn1` [Compound 62, Methyl (1-{4-[(2R,3R)-3-((S)-1-{(E)-(3S,10R,16S)-10-[3-chloro-4-methoxybenzyl]-3-isobutyl-6,6-dimethyl-2,5,9,12-tetraoxo-1,4-dioxa-8,11-diazacyclohexadec-13-en-16-yl}ethyl)-oxiranyl]benzyl}-1H-1,2,3-triazol-4-yl)butanoate], the 50% inhibitory concentration (IC50) amounted to 10.9 nM in test [1], 0.035 nM in test [2] and 0.095 nM in test [3].
On the same counts, the results for `COc1ccc(C[C@H]2NC(=O)/C=C/C[C@@H]([C@H](C)[C@H]3O[C@@H]3c3ccc(CN)cc3)OC(=O)[C@H](CC(C)C)OC(=O)C(C)(C)CNC2=O)cc1Cl` [Compound 77, (E)-(3S,10R,16S)-16-{(S)-1-[(2R,3R)-3-(4-Aminomethylphenyl)oxiranyl]ethyl}-10-(3-chloro-4-methoxybenzyl)-3-isobutyl-6,6-dimethyl-1,4-dioxa-8,11-diazacyclohexadec-13-ene-2,5,9,12-tetraone] are 15.1 nM, 0.105 nM and 0.17 nM.

One may read the IC50 as the midpoint of a concentration-inhibition curve. Low values mean greater potency in that assay, high ones weaker potency in that assay.
